One assay has as its system HEK-293 cells. The assay can be described thus: Efflux (retention) study in HEK-293 cells. It counts as cell-based, human. The following applies: Table S3 second part (HEK-293). Here is the method: (§1) Efflux studies were conducted by incubating the cells with the compound for an initial period of 1 h, after which the incubation medium was replaced with fresh, compound-free medium. The retained intracellular radioactivity was then measured at various time points up to 24 h and expressed as the percentage of retention relative to the 0-h time point, defined as the time immediately after medium replacement.

The next assay relates to LNCaP cells. The assay can be described thus: Efflux (retention) study in LNCaP cells. The class given is cell-based. Conditions: Table S3 first part (LNCaP). Here is the method: as §1

Turning to `O=C(O)CC[C@H](NC(=O)N[C@@H](CCCCNC(=O)[C@@H](Cc1ccc2ccccc2c1)NC(=O)C1CCC(CNC(=O)C(CCCCNC(=O)c2cc3[n+]4c(c2)-c2cccc[n+]2[Pt-2]4([Cl])[n+]2ccccc2-3)NC(=O)COCCOCCNC(=O)CN2CCN3CCN(CC2)CC(=O)[O][64Cu][O]C(=O)C3)CC1)C(=O)O)C(=O)O` (stereo partly shown) [[^64Cu]Cu-NOTA-TP-PSMA 1], the Retained activity in the assay on HEK-293 cells (0 h after medium replacement) was 100 ± 0 %CPM/106 cells; with HEK-293 cells (1 h), 97.8 ± 4.3 %CPM/106 cells; in the assay on HEK-293 cells (2 h), 62.6 ± 18.6 %CPM/106 cells; in the assay on HEK-293 cells (4 h) it was 41.5 ± 9.9 %CPM/106 cells; with HEK-293 cells (24 h), 17.1 ± 1.9 %CPM/106 cells; in the assay on LNCaP cells (0 h after medium replacement), 100 ± 0 %CPM/106 cells. Moreover, the Retained activity in the assay with LNCaP cells (1 h) is 85.36 ± 11.10 %CPM/106 cells; in the assay with LNCaP cells (2 h), 71.36 ± 13.48 %CPM/106 cells; in the assay on LNCaP cells (4 h), 67.8 ± 9.3 %CPM/106 cells; in the assay with LNCaP cells (24 h) it was 51.7 ± 9.4 %CPM/106 cells.
